This is an account of results in paper PMC2806525, “Proteinase-activated receptor-2 mediated inhibition of TNFα-stimulated JNK activation — A novel paradigm for Gq/11 linked GPCRs” (Cellular Signalling, 2010).

Entries after “also recorded” stand apart in the source; their conditions may differ.

For one assay, the system named is p38 MAP kinase. Conditions: higher concentrations, ref [37]; cited from earlier work. The text has this:
Whilst this present study focuses on two agonist effects it is the first study to raise this potential when examining JNK activation. This model was also supported when examining the effect of the novel PAR2 antagonist K-14585 [33]. […] Taken together, these findings indicate two distinct agonist-directed signalling pathways driven by SLIGKV-OH, one dependent upon ...

Assay [1] concerns the target T1, human PAR2 (Homo sapiens, UniProt P55085).
T1 construct: expressed in transfected cells
T1 sequence (P55085 26-397): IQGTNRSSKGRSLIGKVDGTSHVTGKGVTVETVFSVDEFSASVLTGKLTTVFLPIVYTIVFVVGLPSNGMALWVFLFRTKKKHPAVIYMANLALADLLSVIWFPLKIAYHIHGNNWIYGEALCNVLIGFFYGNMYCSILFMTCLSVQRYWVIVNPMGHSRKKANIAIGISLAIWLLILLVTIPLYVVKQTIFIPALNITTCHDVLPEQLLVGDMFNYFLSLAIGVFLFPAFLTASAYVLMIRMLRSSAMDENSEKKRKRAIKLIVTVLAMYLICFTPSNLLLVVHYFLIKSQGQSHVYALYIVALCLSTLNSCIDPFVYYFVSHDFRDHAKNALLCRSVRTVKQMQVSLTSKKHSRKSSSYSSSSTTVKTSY
Nature of the assay: JNK activity, agent alone, PAR2 NCTC2544 cells (clone G). The assay is classed as cell-based. Conditions: higher concentrations, alone; not shown. Here is the method:
(§1) Human skin epithelial cells NCTC2544 were maintained in M199 medium with Earl's salt supplement, 10% (v/v) foetal calf serum, L-glutamine (27 µg/ml), penicillin (250 U/ml), and streptomycin (25 mg/ml). NCTC2544 cells stably expressing human PAR2 (clone G) were maintained in complete M199 medium containing 400 μg/ml of Geneticin for selection pressure and passaged using Versene (2% EDTA/PBS). EAhy-926 cells were produced by hybridizing human umbilical vein endothelial cells (HUVECs) with the epithelial cell line A549 [27] and maintained in Dulbecco's Modified Eagle's Medium (DMEM) supplemented with 10% foetal calf serum (FCS), hypoxanthine/aminopterin/thymidine (HAT supplement), penicillin (250 U/ml) and streptomycin (25 mg/ml), and cells were passaged using Versene.
To measure JNK activity, cells were stimulated as appropriate and the reaction terminated by rapid aspiration and the addition of ice-cold PBS. The cells were solubilised in 20 mM HEPES buffer, pH 7.7, containing 50 mM NaCl, 0.1 mM EDTA, 0.1 mM Na3VO4, 0.1 mM PMSF, 10 mg/ml aprotinin, 10 mg/ml leupeptin, and 1% (w/v) Triton X-100. Lysates were clarified by centrifugation for 5 min at 13,000 rpm and equal amounts of protein were incubated with 20 μg of GST-c-Jun-(5–89) immobilized on glutathione-Sepharose at 4 °C for 3 h. […] Phosphorylation of GST-c-Jun was then determined by autoradiography. […]
Fig. 4 Concentration response effects of PAR2 peptides for activation of JNK and inhibition of TNFα-stimulated JNK. PAR2 expressing NCTC2544 cells (clone G) were incubated with increasing concentrations of SLIGKV-OH or 2f-LIGKV-OH for 30 min and assayed for JNK activity (Panel B) or stimulated for a further 30 min with TNFα (+) before JNK activity was assessed (Panel A). Samples were assessed for JNK activity as outlined in the Methods section. Gels from JNK assays were quantified (Panel C). Each value represents the mean ± s.e.m from at least 4 experiments and data was quantified by densitometry.

The target in assay [2] is T1, human PAR2. Kind of assay: Reversal by PAR2 antagonist of SLIGKV-OH-mediated inhibition of TNFα-stimulated JNK, PAR2 NCTC2544 cells. The assay is classed as cell-based. Conditions: 10 μM K14585 30 min, SLIGKV-OH 100 μM 30 min, then TNFα. Here is the method:
as §1
(§2) To measure JNK activity, cells were stimulated as appropriate and the reaction terminated by rapid aspiration and the addition of ice-cold PBS. The cells were solubilised in 20 mM HEPES buffer, pH 7.7, containing 50 mM NaCl, 0.1 mM EDTA, 0.1 mM Na3VO4, 0.1 mM PMSF, 10 mg/ml aprotinin, 10 mg/ml leupeptin, and 1% (w/v) Triton X-100. Lysates were clarified by centrifugation for 5 min at 13,000 rpm and equal amounts of protein were incubated with 20 μg of GST-c-Jun-(5–89) immobilized on glutathione-Sepharose at 4 °C for 3 h. Beads were then washed three times in solubilisation buffer and twice in 25 mM HEPES buffer, pH 7.6, containing 20 mM β-glycerophosphate, 0.1 mM NaV3O4, and 2 mM dithiothreitol. Precipitates were then incubated with the same buffer containing 25 μM/0.5 μCi of ATP/[γ-^32P] ATP in a final volume of 30 µl at 30 °C for 30 min. The reactions were terminated by the addition of 4× SDS-sample buffer and aliquots of each sample subjected to electrophoresis on 11% SDS-polyacrylamide gel electrophoresis. Phosphorylation of GST-c-Jun was then determined by autoradiography.
Fig. 3 Inhibition of TNFα-stimulated JNK activity is dependent upon PAR2 activation. […] Samples were assessed for JNK activity or phospho-JNK content as outlined in the Methods section. […]

The test system of assay [3] is PKC. Kind of assay: TNFα-stimulated JNK activity, PKC activator / PKC inhibitor, PAR2 NCTC2544 cells. The assay is classed as cell-based, human. Conditions: 100 nM PMA 30 min, TNFα 10 ng/ml 30 min. How it is done: as §1, §2
Where experimental data is shown as a blot, this represents one of at least 3 experiments and data represents the mean ± s.e.m. Statistical analysis was by one-way ANOVA with Dunnett's post test (*P < 0.05, **P < 0.01).
Fig. 5 Pharmacological blockade of protein kinase C reverses PAR2 mediated inhibition of TNFα-stimulated JNK activation. PAR2 expressing NCTC2544 cells (clone G) were pre-incubated with increasing concentrations of GF109203X (GFX) for 30 min then incubated for a further 30 min with 100 nM PMA (Panel A) or 30 nM trypsin (Panel B) prior to stimulation for a further 30 min with TNFα(+) (10 ng/ml). Samples were assessed for JNK activity (Panels A and B) or phospho-JNK levels (Panel D) as outlined in the Methods section. Gels from JNK activity assays were quantified by densitometry (Panel C). Each value represents the mean ± s.e.m from at least 4 experiments. ⁎⁎P < 0.01 compared to TNFα and trypsin stimulated.

The next assay concerns TNFR1. Conditions: ref [42,50]; cited from earlier work. The text has this: Upon activation TNFR1 associates with a number of proteins including TRADD, RIP, TRAF2, MADD and FADD [46]. Formation of this complex at the membrane allows TNFα to mediate an array of different signalling events, such as induction of apoptosis through the FADD-caspase arm or activation of MAP kinase and NFκB signalling via TRAF2. For example, TRAF2 contains a conserved C-terminal region termed the TRAF domain, which interacts with TRADD and an N-terminal ring finge ...

The subject of assay [4] is PKC. Kind of assay: TNFα-stimulated JNK phosphorylation, PKC activator / PKC inhibitor, PAR2 NCTC2544 cells. The assay is classed as cell-based, human. Conditions: 100 nM PMA. Here is the method:
as §1
Proteins were separated by 10% SDS–PAGE and transferred onto nitrocellulose. The membranes were blocked for non-specific binding for 2 h in 2% BSA (w/v) diluted in NATT buffer (50 mM Tris–HCl, 150 mM NaCl, 0.2% (v/v) Tween-20). […]
Fig. 5 Pharmacological blockade of protein kinase C reverses PAR2 mediated inhibition of TNFα-stimulated JNK activation. […] Samples were assessed for JNK activity (Panels A and B) or phospho-JNK levels (Panel D) as outlined in the Methods section. Gels from JNK activity assays were quantified by densitometry (Panel C). […]

The subject of another assay is TNFR1/TRADD. Nature of the assay: TNFR1/TRADD complex formation (TNFR1 immuno-precipitation, TRADD immuno-blot), PAR2 expressing cells. The assay is classed as cell-based, human. Conditions: 100 nM YM254890 or 3 μM GF109203X 30 min, peptide 100 μM 30 min, TNFα 10 ng/ml 30 min. Here is the method:
as §1
Proteins were separated by 10% SDS–PAGE and transferred onto nitrocellulose. The membranes were blocked for non-specific binding for 2 h in 2% BSA (w/v) diluted in NATT buffer (50 mM Tris–HCl, 150 mM NaCl, 0.2% (v/v) Tween-20). The blots were then incubated overnight with 50 ng/ml primary antibody diluted in 0.2% BSA (w/v) in NATT buffer. The blots were washed with NATT buffer for 90 min and incubated with HRP-conjugated secondary antibody (20 ng/ml in 0.2% BSA (w/v) diluted in NATT buffer) for 2 h. After a further 90 min wash, the blots were subjected to ECL reagent and exposed to Kodak X-ray film.
For immuno-precipitation of TNFR1, equal amounts of pre-cleared cell lysates were incubated in Tris–HCl buffer, pH 7.4, containing 50 mM NaCl, 1 mM EDTA, 1 mM EGTA, 1% (w/v) Triton X-100, and 0.5% (w/v) Nonidet P-40, with 2 μg TNFR1 antibody, pre-coupled to protein G, for 3 h. Lysates were recovered by sequential washes in solubilisation buffer and in the same buffer lacking detergents. Precipitates were assessed for TRADD or RIP content using Western blotting.
Fig. 7 PAR2 mediated TNFR1 adapter protein disruption in PAR2 expressing cells. In Panel A, cells were pre-treated with peptide (100 μM) or vehicle prior to stimulation with TNFα (10 ng/ml) for 30 min. Lysates were immuno-precipitated for TNFR1 and immuno-blotted for TRADD and/or RIP, as outlined in the Methods section. In Panel B cells were pre-treated with 100 nM YM254890 or 3 μM GF109203X for 30 min prior to pre-treatment with peptide (100 μM), for 30 min, then incubated for a further 30 min with TNFα (10 ng/ml). TNFR1 immuno-precipitates were immuno-blotted for TRADD. Each gel is representative of at least three experiments.

Assay [5] deals with Gq/11. Nature of the assay: Reversal by Gq/11 inhibitor of PAR2 mediated inhibition of TNFα-stimulated JNK activity, PAR2 NCTC2544 cells. The assay is classed as cell-based, human. Conditions: increasing concentrations YM254890 30 min, SLIGKV-OH 100 μM 30 min, TNFα 10 ng/ml 30 min. How it is done:
as §1
To measure JNK activity, cells were stimulated as appropriate and the reaction terminated by rapid aspiration and the addition of ice-cold PBS. […] Phosphorylation of GST-c-Jun was then determined by autoradiography. […]
(§3) Fig. 6 Gq/11 is essential for PAR2 mediated inhibition of JNK activation by TNFα. […] Samples were assessed for phospho-JNK levels (Panels A and D) or JNK activity (Panel B) as outlined in the Methods section. Gels from JNK activity assays were quantified by densitometry (Panel C). […]

The subject of assay [6] is Gq/11. The settings on record: ref [29]; cited from earlier work. An excerpt:
Thus, DAG derived from Gq/11 activation is likely to drive PKC activation and subsequent inhibition of TNFα stimulated JNK activity. Previously, we have shown that Gq/11 plays a positive role in the regulation of PAR2 mediated NFκB p ...

The test system of assay [7] is Gq/11. Nature of the assay: Reversal by Gq/11 inhibitor of PAR2 mediated inhibition of TNFα-stimulated JNK phosphorylation, PAR2 NCTC2544 cells. The assay is classed as cell-based, human. The settings on record: 100 nM YM254890 30 min, SLIGKV-OH 100 μM 30 min, TNFα 10 ng/ml 30 min. Here is the method:
as §1
Proteins were separated by 10% SDS–PAGE and transferred onto nitrocellulose. The membranes were blocked for non-specific binding for 2 h in 2% BSA (w/v) diluted in NATT buffer (50 mM Tris–HCl, 150 mM NaCl, 0.2% (v/v) Tween-20). The blots were then incubated overnight with 50 ng/ml primary antibody diluted in 0.2% BSA (w/v) in NATT buffer. […]
as §3

Take `NCCCC[C@H](NC(=O)CNC(=O)Nc1ccc2c(c1)c(CN1CCCC1)cn2Cc1c(Cl)cccc1Cl)C(=O)N[C@@H](Cc1ccccc1)C(=O)NC(c1ccccc1)c1ccccc1` [K-14585]: in the assay with p38 MAP kinase, the “p38 MAP kinase activation by K14585 alone” value was “able to activate both JNK (not shown) and p38 MAP kinase”. At human PAR2 [1], the “JNK activation by K14585 alone” value is recorded as “able to activate both JNK”. The “reversal of SLIGKV-OH-mediated JNK inhibition (words)” value on human PAR2 [2] is on record as “able to reverse the inhibition of JNK; also recorded: able to reverse PAR2 mediated inhibition of TNFα signalling”; on human PAR2 [2] (listed as K14585) it was “inhibition was reversed by pre-incubation”; on human PAR2 [2] (listed as K14858), “reversed”.
Take `CCCCCCCCCCCCCC(=O)O[C@@H]1[C@@H](C)[C@@]2(O)[C@@H](C=C(CO)C[C@]3(O)C(=O)C(C)=C[C@@H]23)[C@@H]2C(C)(C)[C@]12OC(C)=O` [PMA]: the “effect of PKC activator on TNFα-stimulated JNK activity” value in the assay on PKC [3] was “mimicked the inhibitory effect of SLIGKV-OH; also recorded: mimic the inhibitory effect of PAR2 activation; also recorded: abolishing both JNK activity and phosphorylation”. The “disruption of TNFR1 binding” value with TNFR1 was “disrupt TNFR1 binding”. For the same compound, the “effect of PKC activator on TNFα-stimulated JNK phosphorylation” value in the assay on PKC [4] is “abolishing both JNK activity and phosphorylation”.
YM254890: the “reversal of PAR2 mediated disruption of TNFR1/TRADD complex” value with TNFR1/TRADD is listed as “effectively reversed PAR2 mediated disruption”; with TNFR1/TRADD (listed as YM25480), “reversed”. The “reversal of PAR2 mediated inhibition of JNK activity by Gq/11 inhibitor” value is recorded as “almost complete abrogation of peptide mediated inhibition; also recorded: complete reversal of PAR2 mediated JNK inhibition” in the assay on Gq/11 [5] and “reversed PAR2 mediated inhibition” with Gq/11 [5] (listed as YM25480). Further, the “inhibition of trypsin and peptide mediated [^3H]IP accumulation” value in the assay with Gq/11 [6] is “very effective inhibitor”. Besides, in the assay with Gq/11 [7], the “reversal of PAR2 mediated inhibition of JNK phosphorylation by Gq/11 inhibitor” value is “almost complete abrogation of peptide mediated inhibition of TNFα stimulated JNK phosphorylation”.
